Assay results as given in the NIST ThermoML archive (doi:10.1016/j.jct.2008.10.013).
± gives the expanded uncertainty stated by the source.

Conditions: 298.15 K; 101.33 kPa; Liquid; Vibrating tube method

mass density | Compound
837.31 ± 0.31 kg/m3 | C=C(C)[C@H]1CC=C(C)CC1 [(R)-1-methyl-4-(1-methylethenyl)cyclohexene]
785.24 ± 0.19 kg/m3 | CCO [ethanol]
786.62 ± 0.17 kg/m3 | CO [methanol]
